Two molecules from patent US7892764B2, “System for seizure suppression” (priority 2006, dated 2011) can be followed below.

The target in the assay is T1, ASICs (Mus musculus, UniProt Q6NXK8).
T1 construct: Primary neuronal cultures were prepared from embryonic Swiss mice at 15 to 16 days of gestation; endogenous in cells
T1 sequence (Q6NXK8 1-526): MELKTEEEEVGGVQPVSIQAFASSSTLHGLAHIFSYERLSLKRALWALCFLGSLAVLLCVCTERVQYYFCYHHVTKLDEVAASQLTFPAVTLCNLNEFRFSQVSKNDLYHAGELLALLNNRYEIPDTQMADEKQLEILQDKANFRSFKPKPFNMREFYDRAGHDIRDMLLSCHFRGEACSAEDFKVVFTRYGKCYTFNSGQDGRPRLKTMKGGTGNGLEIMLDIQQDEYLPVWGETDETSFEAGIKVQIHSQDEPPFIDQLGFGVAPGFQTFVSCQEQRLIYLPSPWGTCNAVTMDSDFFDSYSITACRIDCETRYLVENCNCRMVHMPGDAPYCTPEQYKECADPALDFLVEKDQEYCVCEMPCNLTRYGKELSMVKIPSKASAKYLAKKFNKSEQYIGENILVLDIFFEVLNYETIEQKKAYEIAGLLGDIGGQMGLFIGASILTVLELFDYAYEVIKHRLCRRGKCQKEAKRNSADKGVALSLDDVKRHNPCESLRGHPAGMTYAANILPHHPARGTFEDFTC
Description: Acid (pH 7.0/7.1)-induced membrane depolarization and neuronal firing, current-clamp recording. The class given is cell-based. The text has this:
Unlike ischemia, only moderate pH changes (e.g., ˜0.3 pH unit) are reported in brain parenchyma during seizures (Chesler et al., 1988: Chesler et al., 1992), although pH in the synaptic cleft may be much lower (Chesler et al., 1992; Wemmie et al., 2006). […] One possibility is that voltage-clamp recording has relatively low sensitivity to resolve small current in whole-cell configuration. To provide more evidence that the decreases of pHo to the level seen in epilepsy can indeed activate the ASICs and cause neuronal excitation, we have also used current-clamp recording to study changes of membrane depolarization and neuronal firing by small changes of pHo. Due to the large input resistance of most CNS neurons (e.g., ˜500 MΩ), even a small membrane current (e.g., 10-20 pA, which is difficult to resolve in voltage-clamp recording in general) can induce significant membrane depolarization in current-clamp conditions. Mouse cortical neurons were used for current-clamp recordings 14 days after the culture.
Cortical neuronal culture. Primary neuronal cultures were prepared from embryonic Swiss mice at 15 to 16 days of gestation according to our previously described techniques (Xiong et al., 2004). In brief, cerebral cortices from 10 to 12 embryos were dissected and incubated with 0.05% trypsin-EDTA for 10 min, dissociated by trituration with a fire-polished glass pipette, and plated on poly-L-ornithine-coated culture dishes at a density of 0.5×10^6 cells per dish. Neurons were cultured with Neurobasal medium supplemented with B27 (Invitrogen). The cultures were maintained at 37° C. in a humidified 5% CO2 atmosphere incubator and were used for experiments after 12-14 days.
Patch clamp techniques. Whole-cell voltage-clamp and current-clamp recordings were performed as described in our previous studies (Xiong et al., 2004). […] Whole-cell currents were recorded using Axopatch 200B amplifiers with pCLAMP software (Axon Instruments, CA, USA). […]

With `NC(N)=NC(=O)c1nc(Cl)c(N)nc1N` [amiloride, 3,5-diamino-6-chloro-N(diaminomethylidene)pyrazine-2-carboxamide], the “effect on acid-induced neuronal excitation (membrane depolarization, firing rate)” value (pH 7.0, amiloride 100 μM or synthetic PcTX1 20 nM) is “largely and significantly reduced”. Psalmotoxin 1 [PcTX1]: the “effect on acid-induced depolarization and firing of action potentials” value (pH 7.1) is “sensitive to PcTX1 inhibition”.
